# Tests used:
# HEL [1] = test: Cytotoxic concentration required to inhibit HEL cell growth by 50 %; format: functional; settings: Homo sapiens
# HEL [2] = test: Minimum cytotoxic concentration required to alter microscopically detectable HEL cell morphology; format: functional; settings: Homo sapiens
# Human alphaherpesvirus 3 [3] = test: Effective concentration required for reduction of plaque formation of Varicella-Zoster Virus (OKA strain); format: functional, organism-based
# Human alphaherpesvirus 3 [4] = test: Effective concentration required for reduction of plaque formation of Varicella-Zoster Virus, (YS strain); format: functional, organism-based
# Human alphaherpesvirus 3 [5] = test: Effective concentration required for reduction of plaque formation of thymidine kinase deficient Varicella-Zoster Virus (YSR strain); format: functional, organism-based
# Human alphaherpesvirus 3 [6] = test: Effective concentration required for reduction of plaque formation of thymidine kinase deficient Varicella-Zoster Virus (071 strain); format: functional, organism-based
compound,measurement,setting,value
CCCCCCCCCCc1cc2cn([C@H]3C[C@H](O)[C@@H](CO)O3)c(=O)nc2o1,CC50,HEL [1],> 50 µM
CCCCCCCCc1cc2cn([C@H]3C[C@H](O)[C@@H](CO)O3)c(=O)nc2o1,CC50,HEL [1],> 50 µM
CCCCCCc1cc2cn([C@H]3C[C@H](O)[C@@H](CO)O3)c(=O)nc2o1,CC50,HEL [1],> 200 µM
same,MCC,HEL [2],> 50 µM
CCCCCCCc1cc2cn([C@H]3C[C@H](O)[C@@H](CO)O3)c(=O)nc2o1,CC50,HEL [1],> 50 µM
C#CCCCCCCc1cc2cn([C@H]3C[C@H](O)[C@@H](CO)O3)c(=O)nc2o1,EC50,Human alphaherpesvirus 3 [3],5 µM
same,EC50,Human alphaherpesvirus 3 [4],4 µM
same,EC50,Human alphaherpesvirus 3 [5],> 200 µM
same,EC50,Human alphaherpesvirus 3 [6],> 200 µM
same,CC50,HEL [1],> 200 µM
same,MCC,HEL [2],> 200 µM
C#CCCCCCc1cc2cn([C@H]3C[C@H](O)[C@@H](CO)O3)c(=O)nc2o1,EC50,Human alphaherpesvirus 3 [3],79 µM
same,EC50,Human alphaherpesvirus 3 [4],37 µM
same,EC50,Human alphaherpesvirus 3 [5],> 200 µM
same,EC50,Human alphaherpesvirus 3 [6],> 200 µM
same,CC50,HEL [1],> 200 µM
same,MCC,HEL [2],> 200 µM
C=CCCCCc1cc2cn([C@H]3C[C@H](O)[C@@H](CO)O3)c(=O)nc2o1,EC50,Human alphaherpesvirus 3 [3],14 µM
same,EC50,Human alphaherpesvirus 3 [4],13 µM
same,EC50,Human alphaherpesvirus 3 [5],> 200 µM
same,EC50,Human alphaherpesvirus 3 [6],> 200 µM
same,CC50,HEL [1],> 200 µM
same,MCC,HEL [2],> 200 µM
C=CCCCCCCc1cc2cn([C@H]3C[C@H](O)[C@@H](CO)O3)c(=O)nc2o1,EC50,Human alphaherpesvirus 3 [3],0.27 µM
same,EC50,Human alphaherpesvirus 3 [4],0.06 µM
same,EC50,Human alphaherpesvirus 3 [5],> 50 µM
same,EC50,Human alphaherpesvirus 3 [6],> 200 µM
same,CC50,HEL [1],> 200 µM
same,MCC,HEL [2],> 200 µM
C=CCCCc1cc2cn([C@H]3C[C@H](O)[C@@H](CO)O3)c(=O)nc2o1,EC50,Human alphaherpesvirus 3 [3],> 200 µM
same,EC50,Human alphaherpesvirus 3 [4],> 200 µM
same,EC50,Human alphaherpesvirus 3 [5],> 200 µM
same,EC50,Human alphaherpesvirus 3 [6],> 200 µM
same,CC50,HEL [1],> 200 µM
same,MCC,HEL [2],> 200 µM
CCCCCc1cc2cn([C@H]3C[C@H](O)[C@@H](CO)O3)c(=O)nc2o1,CC50,HEL [1],> 50 µM
C=CCCCCCCCCc1cc2cn([C@H]3C[C@H](O)[C@@H](CO)O3)c(=O)nc2o1,EC50,Human alphaherpesvirus 3 [3],0.09 µM
same,EC50,Human alphaherpesvirus 3 [4],0.1 µM
same,EC50,Human alphaherpesvirus 3 [5],> 200 µM
same,EC50,Human alphaherpesvirus 3 [6],> 200 µM
same,CC50,HEL [1],> 200 µM
same,MCC,HEL [2],> 50 µM
C#CCCCc1cc2cn([C@H]3C[C@H](O)[C@@H](CO)O3)c(=O)nc2o1,EC50,Human alphaherpesvirus 3 [3],8 µM
same,EC50,Human alphaherpesvirus 3 [4],10 µM
same,EC50,Human alphaherpesvirus 3 [5],> 200 µM
same,EC50,Human alphaherpesvirus 3 [6],> 200 µM
same,CC50,HEL [1],> 200 µM
same,MCC,HEL [2],> 200 µM
C#CCCCCc1cc2cn([C@H]3C[C@H](O)[C@@H](CO)O3)c(=O)nc2o1,EC50,Human alphaherpesvirus 3 [3],25 µM
same,EC50,Human alphaherpesvirus 3 [4],33 µM
same,EC50,Human alphaherpesvirus 3 [5],> 200 µM
same,EC50,Human alphaherpesvirus 3 [6],> 200 µM
same,CC50,HEL [1],> 200 µM
same,MCC,HEL [2],> 200 µM
Nc1nc2c(ncn2COCCO)c(=O)[nH]1 [ACYCLOVIR],EC50,Human alphaherpesvirus 3 [6],> 4 µM
same,CC50,HEL [1],> 200 µM
